The results in this text go back to US9604961B2, “Histone demethylase inhibitors” (Celgene Quanticel Research, Inc., priority 2012, dated 2017).

Where only a bound is given, the exact number is not on record here.

The term IC50 denotes the point on the concentration scale where inhibition reaches its midpoint. Higher therefore signals weaker potency.

Holding throughout (type): biochemical
In one test the target is JMJD2C (Homo sapiens (Human), UniProt Q9H3R0). Briefly: JMJD2C in vitro enzyme inhibition assay (TR-FRET). In general terms: Time-resolved FRET reads energy transfer from a long-lived donor to a nearby acceptor.
A further test concerns the target Jarid1B (Homo sapiens (Human), UniProt Q9UGL1). As to the kind of experiment: Jarid1B in vitro enzyme inhibition assay (TR-FRET).
For another test, the target named is Jarid1A (Homo sapiens (Human), UniProt P29375). Briefly: Jarid1A in vitro enzyme inhibition assay (TR-FRET). An excerpt:
The enzymatic assay of Jarid1A activity is based upon Time Resolved-Fluorescence Resonance Energy Transfer (TR-FRET) detection.

Jarid1B, sequence (Q9UGL1 2-751): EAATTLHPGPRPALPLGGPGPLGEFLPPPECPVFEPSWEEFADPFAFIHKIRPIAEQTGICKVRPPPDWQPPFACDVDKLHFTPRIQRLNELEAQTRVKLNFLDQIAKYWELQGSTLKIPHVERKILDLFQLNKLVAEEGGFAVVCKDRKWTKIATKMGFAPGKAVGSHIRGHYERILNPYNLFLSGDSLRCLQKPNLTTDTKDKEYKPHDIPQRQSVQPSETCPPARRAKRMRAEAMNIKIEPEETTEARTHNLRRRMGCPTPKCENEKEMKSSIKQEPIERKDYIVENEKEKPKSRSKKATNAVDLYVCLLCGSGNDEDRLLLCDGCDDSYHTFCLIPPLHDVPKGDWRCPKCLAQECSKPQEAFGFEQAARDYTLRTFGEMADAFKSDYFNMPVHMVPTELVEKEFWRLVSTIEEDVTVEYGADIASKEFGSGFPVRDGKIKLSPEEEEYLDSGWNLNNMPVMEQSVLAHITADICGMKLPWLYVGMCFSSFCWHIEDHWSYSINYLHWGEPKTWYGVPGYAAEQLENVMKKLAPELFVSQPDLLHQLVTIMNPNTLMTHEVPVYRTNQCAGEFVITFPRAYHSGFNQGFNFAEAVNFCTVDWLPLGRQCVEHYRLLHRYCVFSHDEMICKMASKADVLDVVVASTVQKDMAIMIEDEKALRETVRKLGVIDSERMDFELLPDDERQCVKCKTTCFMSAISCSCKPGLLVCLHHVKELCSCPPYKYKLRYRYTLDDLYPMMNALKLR
Jarid1A, sequence (P29375 1-1090): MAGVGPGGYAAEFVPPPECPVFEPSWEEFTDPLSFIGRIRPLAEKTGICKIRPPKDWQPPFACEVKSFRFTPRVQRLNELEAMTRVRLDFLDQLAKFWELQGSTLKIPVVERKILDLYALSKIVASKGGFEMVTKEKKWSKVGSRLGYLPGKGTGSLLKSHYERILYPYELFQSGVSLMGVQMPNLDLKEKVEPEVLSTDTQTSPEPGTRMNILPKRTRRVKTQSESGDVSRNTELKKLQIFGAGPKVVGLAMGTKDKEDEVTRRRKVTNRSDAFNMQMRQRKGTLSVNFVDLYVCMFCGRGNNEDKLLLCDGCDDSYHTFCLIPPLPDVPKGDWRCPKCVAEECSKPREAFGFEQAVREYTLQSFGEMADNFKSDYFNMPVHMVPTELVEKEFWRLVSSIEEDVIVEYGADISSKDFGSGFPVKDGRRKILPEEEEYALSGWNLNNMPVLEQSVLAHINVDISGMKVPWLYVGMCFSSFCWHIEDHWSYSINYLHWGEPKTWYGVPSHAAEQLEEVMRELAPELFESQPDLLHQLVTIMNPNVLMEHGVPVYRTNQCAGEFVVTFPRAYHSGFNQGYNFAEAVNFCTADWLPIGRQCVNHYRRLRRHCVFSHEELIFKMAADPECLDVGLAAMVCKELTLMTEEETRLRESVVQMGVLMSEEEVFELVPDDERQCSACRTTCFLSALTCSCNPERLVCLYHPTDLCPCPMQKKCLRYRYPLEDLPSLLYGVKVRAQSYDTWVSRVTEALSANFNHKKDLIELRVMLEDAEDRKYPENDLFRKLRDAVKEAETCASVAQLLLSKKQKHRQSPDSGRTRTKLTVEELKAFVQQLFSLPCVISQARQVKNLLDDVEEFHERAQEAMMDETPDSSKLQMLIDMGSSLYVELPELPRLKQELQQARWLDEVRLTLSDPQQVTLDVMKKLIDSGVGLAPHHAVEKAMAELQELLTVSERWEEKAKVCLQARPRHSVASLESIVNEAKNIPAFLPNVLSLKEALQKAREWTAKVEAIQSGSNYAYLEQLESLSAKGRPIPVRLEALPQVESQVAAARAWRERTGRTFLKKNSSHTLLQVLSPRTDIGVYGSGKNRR
JMJD2C, sequence (Q9H3R0 2-372): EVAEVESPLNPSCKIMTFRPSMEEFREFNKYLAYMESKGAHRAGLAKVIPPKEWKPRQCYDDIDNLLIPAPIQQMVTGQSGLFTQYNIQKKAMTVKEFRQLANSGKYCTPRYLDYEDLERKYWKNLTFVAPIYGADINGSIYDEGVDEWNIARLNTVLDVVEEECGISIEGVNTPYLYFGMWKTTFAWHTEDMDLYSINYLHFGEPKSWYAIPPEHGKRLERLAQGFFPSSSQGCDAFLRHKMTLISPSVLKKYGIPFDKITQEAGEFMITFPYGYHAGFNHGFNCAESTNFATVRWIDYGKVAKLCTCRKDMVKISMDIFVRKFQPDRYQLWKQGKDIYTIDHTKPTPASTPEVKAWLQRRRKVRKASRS
Protocol for JMJD2C: Baculovirus expressed JMJD2C (GenBank Accession #BC143571, AA 2-372) was purchased from BPS Bioscience (Cat#50105).
The ability of test compounds to inhibit the activity of JMJD2C was determined in 384-well plate format under the following reaction conditions: 0.3 nM JMJD2C, 300 nM H3K9me3-biotin labeled peptide (Anaspec cat #64360), 2 μM alpha-ketoglutaric acid in assay buffer of 50 mM HEPES, pH7.3, 0.005% Brij35, 0.5 mM TCEP, 0.2 mg/ml BSA, 50 μM sodium L-ascorbate, and 2 μM ammonium iron(II) sulfate. Reaction product was determined quantitatively by TR-FRET after the addition of detection reagent Phycolink Streptavidin-allophycocyanin (Prozyme) and Europium-anti-di-methylated histone H3 lysine 9 (H3K9me2) antibody (PerkinElmer) in the presence of 5 mM EDTA in LANCE detection buffer (PerkinElmer) at a final concentration of 50 nM and 1 nM, respectively.
The assay reaction was initiated by the following: 2 μl of the mixture of 900 nM H3K9me3-biotin labeled peptide and 6 μM alpha-ketoglutaric acid with 2 μl of 11-point serial diluted inhibitor in 3% DMSO were added to each well of the plate, followed by the addition of 2 μl of 0.9 nM JMJD2C to initiate the reaction. The reaction mixture was incubated at room temperature for 30 minutes, and terminated by the addition of 6 μl of 5 mM EDTA in LANCE detection buffer containing 100 nM Phycolink Streptavidin-allophycocyanin and 2 nM Europium-anti-H3K9me2 antibody. Plates were read by EnVisionMultilabel Reader in TR-FRET mode (excitation at 320 nm, emission at 615 nm and 665 nm) after 1 hour incubation at room temperature. A ratio was calculated (665/615) for each well and fitted to determine inhibition constant (IC50).

As for `O=C(O)c1ccnc(-n2nccc2OCc2ccc(F)cc2/C=C/c2ccc(F)cc2)c1` [Example 119, 2-[5-[[4-fluoro-2-[(E)-2-(4-fluorophenyl)ethenyl]phenyl]methoxy]pyrazol-1-yl]pyridine-4-carboxylic acid], the IC50 at JMJD2C lay within 1000 to 10000 nM; at Jarid1B it was 100 to 1000 nM; against Jarid1A, 100 to 1000 nM.

In the case of `CN(C)CCc1cnn(-c2cc(C(=O)O)ccn2)c1OCc1ccc(F)cc1` [Example 110, 2-[4-[2-(dimethylamino)ethyl]-5-[(4-fluorophenyl)methoxy]pyrazol-1-yl]pyridine-4-carboxylic acid], the IC50 against JMJD2C is 100 to 1000 nM; against Jarid1B, less than 100 nM; at Jarid1A, less than 100 nM.

Take `O=C(O)c1ccnc(-n2nccc2OCc2ccc(C3CC3)cc2Cl)c1` [Example 152, 2-[5-[(2-chloro-4-cyclopropylphenyl)methoxy]pyrazol-1-yl]pyridine-4-carboxylic acid]: the IC50 against JMJD2C lay in the range of 1000 to 10000 nM; against Jarid1B, 100 to 1000 nM; on Jarid1A, 100 to 1000 nM.

For `O=C(O)c1ccnc(-n2nccc2OCc2ccc(Cl)cc2F)c1` [Example 75, 2-{5-[(4-chloro-2-fluorobenzyl)oxy]-1H-pyrazol-1-yl}pyridine-4-carboxylic acid], the IC50 against JMJD2C, at Jarid1B and against Jarid1A was less than 100 nM in each case.

Turning to `O=C(O)c1ccnc(-n2nccc2OCc2ccccc2F)c1` [Example 59, 2-{5-[(2-fluorobenzyl)oxy]-1H-pyrazol-1-yl}pyridine-4-carboxylic acid], the IC50 against JMJD2C, at Jarid1B and against Jarid1A was less than 100 nM in each case.

In the case of `O=C(O)c1ccnc(-n2nccc2OCc2ccc(Cl)cc2/C=C/c2ccc(F)cc2)c1` [Example 120, 2-[5-[[4-chloro-2-[(E)-2-(4-fluorophenyl)ethenyl]phenyl]methoxy]pyrazol-1-yl]pyridine-4-carboxylic acid], the IC50 on JMJD2C is 1000 to 10000 nM; against Jarid1B it was 100 to 1000 nM; against Jarid1A, 100 to 1000 nM.

As to `Cc1cc(F)ccc1COc1ccnn1-c1cc(C(=O)O)ccn1` [Example 128, 2-[5-[(4-fluoro-2-methylphenyl)methoxy]pyrazol-1-yl]pyridine-4-carboxylic acid], the IC50 on JMJD2C was 100 to 1000 nM; at Jarid1B, less than 100 nM; at Jarid1A, less than 100 nM.

Regarding `O=C(O)c1ccnc(-n2nccc2OCc2ccncc2)c1` [Example 61, 2-[5-(pyridin-4-ylmethoxy)-1H-pyrazol-1-yl]pyridine-4-carboxylic acid], the IC50 at JMJD2C, on Jarid1B and at Jarid1A was less than 100 nM each time.

With `O=C(O)c1ccnc(-n2nccc2OCc2cccc(O)c2)c1` [Example 73, 2-{5-[(3-hydroxybenzyl)oxy]-1H-pyrazol-1-yl}pyridine-4-carboxylic acid], the IC50 on JMJD2C, at Jarid1B and at Jarid1A was less than 100 nM in each case.

In the case of `O=C(O)c1ccnc(-n2nccc2OCc2cccc3c2OCC3)c1` [Example 123, 2-[5-(2,3-dihydro-1-benzofuran-7-ylmethoxy)pyrazol-1-yl]pyridine-4-carboxylic acid], the IC50 at JMJD2C is 100 to 1000 nM; on Jarid1B, less than 100 nM; against Jarid1A, less than 100 nM.

In the case of `O=C(O)c1ccnc(-n2nccc2OCc2ccc(C3CC3)c(F)c2)c1` [Example 155, 2-[5-[(4-cyclopropyl-3-fluorophenyl)methoxy]pyrazol-1-yl]pyridine-4-carboxylic acid], the IC50 on JMJD2C was 1000 to 10000 nM; on Jarid1B it was less than 100 nM; against Jarid1A, 100 to 1000 nM.

Consider `O=C(O)c1ccnc(-n2nccc2-c2ccccc2)c1` [Example 26, 2-(5-phenyl-1H-pyrazol-1-yl)isonicotinic acid], for which the IC50 against JMJD2C, on Jarid1B and at Jarid1A was 1000 to 10000 nM in each case.

`CS(=O)(=O)c1ccc(-c2ccnn2-c2cc(C(=O)O)ccn2)cc1O` [Example 28, 2-(5-(3-hydroxy-4-(methylsulfonyl)phenyl)-1H-pyrazol-1-yl)isonicotinic acid]: the IC50 lay in the range of 1000 to 10000 nM at JMJD2C, 100 to 1000 nM on Jarid1B and 100 to 1000 nM on Jarid1A.

With `CC(Oc1ccnn1-c1cc(C(=O)O)ccn1)c1ccc(F)cc1` (stereo not drawn) [Example 82, 2-[5-[1-(4-fluorophenyl)ethoxy]pyrazol-1-yl]pyridine-4-carboxylic acid], the IC50 against JMJD2C was 100 to 1000 nM; at Jarid1B, less than 100 nM; at Jarid1A, less than 100 nM.

Consider `O=C(O)c1ccnc(-n2nccc2-c2ccc(F)c(F)c2)c1` [Example 15, 2-(5-(3,4-difluorophenyl)-1H-pyrazol-1-yl)isonicotinic acid], for which the half-inhibitory concentration (IC50) on JMJD2C, at Jarid1B and on Jarid1A was 100 to 1000 nM throughout.

As to `CCc1cc(-c2ccc(C)cc2)n(-c2cc(C(=O)O)ccn2)n1` [Example 30, 2-(3-ethyl-5-p-tolyl-1H-pyrazol-1-yl)isonicotinic acid], the figures for the IC50 against JMJD2C, against Jarid1B and against Jarid1A were 1000 to 10000 nM, 100 to 1000 nM and 1000 to 10000 nM, respectively.

As for `CCc1ccc(COc2ccnn2-c2cc(C(=O)O)ccn2)c(Cl)c1` [Example 150, 2-[5-[(2-chloro-4-ethylphenyl)methoxy]pyrazol-1-yl]pyridine-4-carboxylic acid], the half-maximal inhibitory concentration (IC50) is 1000 to 10000 nM against JMJD2C, 100 to 1000 nM against Jarid1B and 100 to 1000 nM on Jarid1A.

On to `Cc1ccc(COc2ccnn2-c2cc(C(=O)O)ccn2)c(C#N)c1` [Example 134, 2-[5-[(2-cyano-4-methylphenyl)methoxy]pyrazol-1-yl]pyridine-4-carboxylic acid], for which the IC50 on JMJD2C was 100 to 1000 nM; against Jarid1B, less than 100 nM; at Jarid1A, less than 100 nM.

Take `CCc1cc(F)ccc1COc1ccnn1-c1cc(C(=O)O)ccn1` [Example 129, 2-[5-[(2-ethyl-4-fluorophenyl)methoxy]pyrazol-1-yl]pyridine-4-carboxylic acid]: the IC50 is 100 to 1000 nM against JMJD2C, less than 100 nM against Jarid1B and less than 100 nM against Jarid1A.

As to `O=C(O)c1ccnc(-n2nccc2-c2ccc(O)cc2)c1` [Example 18, 2-(5-(4-hydroxyphenyl)-1H-pyrazol-1-yl)isonicotinic acid], the IC50 against JMJD2C, against Jarid1B and on Jarid1A was 100 to 1000 nM in each case.

For the compound `CC(Oc1cc(F)ccc1COc1ccnn1-c1cc(C(=O)O)ccn1)c1ccccc1` (stereo not drawn) [Example 137, 2-[5-[[4-fluoro-2-(1-phenylethoxy)phenyl]methoxy]pyrazol-1-yl]pyridine-4-carboxylic acid], the IC50 on JMJD2C was in the range of 1000 to 10000 nM; on Jarid1B it was 100 to 1000 nM; against Jarid1A it was 100 to 1000 nM.

On to `O=C(O)c1ccnc(-n2nccc2OC2CCCc3cc(F)ccc32)c1` (stereo not drawn) [Example 148, 2-[5-[(6-fluoro-1,2,3,4-tetrahydronaphthalen-1-yl)oxy]pyrazol-1-yl]pyridine-4-carboxylic acid], for which the IC50 was in the range of 1000 to 10000 nM on JMJD2C, 100 to 1000 nM against Jarid1B and 100 to 1000 nM against Jarid1A.

Consider `O=C(O)c1ccnc(-n2nccc2OCc2ccc(C3CC3)cc2F)c1` [Example 153, 2-[5-[(4-cyclopropyl-2-fluorophenyl)methoxy]pyrazol-1-yl]pyridine-4-carboxylic acid], for which the values for the IC50 against JMJD2C, against Jarid1B and against Jarid1A were 1000 to 10000 nM, 100 to 1000 nM and 100 to 1000 nM, respectively.

For `CC(Oc1cc(Cl)ccc1COc1ccnn1-c1cc(C(=O)O)ccn1)c1ccccc1` (stereo not drawn) [Example 136, 2-[5-[[4-chloro-2-(1-phenylethoxy)phenyl]methoxy]pyrazol-1-yl]pyridine-4-carboxylic acid], the IC50 against JMJD2C was 1000 to 10000 nM; against Jarid1B, 100 to 1000 nM; on Jarid1A, 100 to 1000 nM.

As to `O=C(O)c1ccnc(-n2nccc2OC2CCc3cc(Cl)ccc32)c1` (stereo not drawn) [Example 147, 2-[5-[(5-chloro-2,3-dihydro-1H-inden-1-yl)oxy]pyrazol-1-yl]pyridine-4-carboxylic acid], the concentration for half-maximal inhibition (IC50) on JMJD2C lay within 1000 to 10000 nM; against Jarid1B it was 100 to 1000 nM; on Jarid1A it was 100 to 1000 nM.

`CCCCc1ccn(-c2cc(C(=O)O)ccn2)n1` [Example 45, 2-(3-butyl-1H-pyrazol-1-yl)pyridine-4-carboxylic acid]: the IC50 on JMJD2C, against Jarid1B and against Jarid1A was 100 to 1000 nM each time.

As for `Cc1c(-c2ccccc2)cnn1-c1cc(C(=O)O)ccn1` [Example 36, 2-(5-methyl-4-phenyl-1H-pyrazol-1-yl)isonicotinic acid], the IC50 was greater than 10000 nM against JMJD2C, 100 to 1000 nM against Jarid1B and 100 to 1000 nM against Jarid1A.

In the case of `O=C(O)c1ccnc(-n2nccc2OCc2cccnc2)c1` [Example 60, 2-[5-(pyridin-3-ylmethoxy)-1H-pyrazol-1-yl]pyridine-4-carboxylic acid], the values for the IC50 on JMJD2C, on Jarid1B and on Jarid1A were 100 to 1000 nM, less than 100 nM and less than 100 nM, respectively.

Turning to `Cc1ccc(COc2ccnn2-c2cc(C(=O)O)ccn2)c(F)c1F` [Example 94, 2-[5-[(2,3-difluoro-4-methylphenyl)methoxy]pyrazol-1-yl]pyridine-4-carboxylic acid], the IC50 on JMJD2C, on Jarid1B and at Jarid1A was less than 100 nM each time.

Turning to `Cc1cccc(-c2ccnn2-c2cc(C(=O)O)ccn2)c1` [Example 13, 2-(5-m-tolyl-1H-pyrazol-1-yl)isonicotinic acid], the IC50 at JMJD2C, on Jarid1B and against Jarid1A was 100 to 1000 nM each time.

As for `O=C(O)c1ccnc(-n2nccc2OCc2ccc(F)cc2F)c1` [Example 86, 2-[5-[(2,4-difluorophenyl)methoxy]pyrazol-1-yl]pyridine-4-carboxylic acid], the results for the concentration for half-maximal inhibition (IC50) at JMJD2C, against Jarid1B and at Jarid1A were 100 to 1000 nM, less than 100 nM and less than 100 nM, respectively.

For `O=C(O)c1ccnc(-n2nccc2OCC2CC(F)(F)C2)c1` [Example 83, 2-[5-[(3,3-difluorocyclobutyl)methoxy]pyrazol-1-yl]pyridine-4-carboxylic acid], the concentration for half-maximal inhibition (IC50) against JMJD2C, on Jarid1B and on Jarid1A was less than 100 nM each time.
